Measured values reported in patent US20140316119A1, “COMPOSITION FOR IMPROVING BIOMETABOLISM PARAMETER” (MATSUTANI CHEMICAL INDUSTRY CO., LTD., priority 2011, published 2014).

Key:
[1] = system: γ-GTP, ALT, ALP, and a uric acid level; test: Clinical trial, 12-week D-psicose ingestion (Example 1); assay type: in vivo, human
Protocol: Increasing incidence of lifestyle-related diseases, diabetes in particular, has been a problem in Japan. Clinical trials were conducted with recruited diabetic subjects, and biometabolism parameter changes due to D-psicose were investigated. The recruited subjects consisted of diabetes borderline subjects (12 subjects with fasting glucose levels of 110 to 126 mg/dl), and diabetes patients (6 type 2 diabetes patients undergoing drug treatment) (all subjects, males and females, were at least 20 years of age at the time of informed consent). Five grams of D-psicose was ingested per meal for 12 weeks. The D-psicose was purchased from Izumoring Co., Ltd. The subjects were tested after 0, 2, 4, 8, and 12 weeks from the start of the ingestion, and after 4 weeks from the end of the ingestion period (week 16, post-ingestion observation). The subjects were fasted after the dinner served on the day before the testing date. The subjects were measured for γ-GTP, ALT, ALP, and a uric acid level using the service of BML Inc. A paired t-test was used for statistical comparison before and after the ingestion. In the figure, significant difference is given by *:0.05<P or **:0.01<P.

[2] = oral ingestion, cited from earlier work
γ-GTP, ALT, and ALP = test: Four-week D-psicose ingestion tests (Example 2); assay type: in vivo, human; conditions: 15 g once per day, after 2 weeks
Protocol: Four-week D-psicose ingestion tests were conducted with recruited healthy individuals (8 individuals with a […]) and diabetes borderline subjects (6 individuals with fasting glucose levels of 110 to 126 mg/dl, or HbA1c of 5.9 to 6.5%) (all subjects, males and females, were at least 20 years of age at the time of informed consent). Each subject ingested 15 g of D-psicose once per day. The D-psicose was purchased from Izumoring Co., Ltd. The subjects were tested after 0, 2, and 4 weeks from the start of the ingestion, and after 4 weeks from the end of the ingestion period (week 8, post-ingestion observation). The subjects were fasted after the dinner served on the day before the testing date. The subjects were measured for γ-GTP, ALT, and ALP by using the service of BML Inc. A paired t-test was used for statistical comparison before and after the ingestion. In the figure, significant difference is given by *:0.05<P or **:0.01<P.

[3] = healthy individuals + diabetes borderline subjects
[4] = stratified: healthy individuals, P<0.01

O=C(CO)[C@H](O)[C@H](O)[C@H](O)CO [D-psicose]
ALT change ([1]; 5 g per meal for 12 weeks): lack of significant decrease | γ-GTP change ([1]; all subjects (diabetes borderline + diabetes patients), 5 g D-psicose per meal, after 4 weeks from the ingestion, paired t-test vs before ingestion): significantly decreased | ALP change ([1]; all subjects, 5 g D-psicose per meal, after 2 weeks from the ingestion): significant decrease | uric acid level change ([1]; all subjects, 5 g per meal, after two weeks from the ingestion): significant decrease | uric acid level change ([1]; stratified: diabetes borderline patients, after 2 weeks): significant decrease | ALP change ([1]; stratified: diabetes borderline patients, after 2 weeks, P<0.05): significantly decreased | γ-GTP change ([1]; stratified: diabetes borderline patients, after 4 weeks, P<0.01): significant decrease | ALP change ([1]; stratified: diabetes patients, after 2 weeks, P<0.05): significantly decreased | γ-GTP change ([1]; stratified: diabetes patients, after 8 weeks, P<0.01): significant decrease | share of ingested D-psicose directly absorbed but excreted into urine [2]: 70% | share of ingested D-psicose that reaches the large intestine, excreted into feces ([2]; essentially not utilized by enteric bacteria): 30% | ALP change (γ-GTP, ALT, and ALP; [3]): significantly decreased | ALT change (γ-GTP, ALT, and ALP; [3]): significantly decreased | γ-GTP change (γ-GTP, ALT, and ALP; [3]): significantly decreased | ALP change (γ-GTP, ALT, and ALP; [4]): significant decrease | γ-GTP change (γ-GTP, ALT, and ALP; [4]): significant decrease
